From the supplement of paper PMC10307832

Legend:
Assay in all cases: relative viability (nuclei count vs DMSO), 5 days (fraction); higher = more cells survive
Vemurafenib + Olaparib = compound: CCCS(=O)(=O)Nc1ccc(F)c(C(=O)c2c[nH]c3ncc(-c4ccc(Cl)cc4)cc23)c1F [Vemurafenib] + O=C(c1cc(Cc2n[nH]c(=O)c3ccccc23)ccc1F)N1CCN(C(=O)C2CC2)CC1 [Olaparib] (partner 8 µM)
Procedure, shortened: (§1)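 After 5 days of treatment, lung cancer cells in 1536-well plates were fixed and stained in a single step (final 0.05% Triton X-100, 1% formaldehyde, 1 ug/ml Hoechst) and their nuclei counted on 4× images. Treatment had been applied by pin tool the day after seeding as one drug alone or as a fixed anchor-drug dose with five library-drug doses (not always all listed) in √10 steps. Relative viability is the nuclei count of treated wells divided by that of vehicle wells, and values are medians of duplicate plates.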

Alpelisib + OSI-027 = compound: Cc1nc(NC(=O)N2CCC[C@H]2C(N)=O)sc1-c1ccnc(C(C)(C)C(F)(F)F)c1 [Alpelisib] + COc1cccc2cc(-c3nc([C@H]4CC[C@H](C(=O)O)CC4)n4ncnc(N)c34)[nH]c12 [OSI-027] (partner 0.5 µM)
Procedure, shortened: as §1

Vemurafenib + Pemetrexed = compound: CCCS(=O)(=O)Nc1ccc(F)c(C(=O)c2c[nH]c3ncc(-c4ccc(Cl)cc4)cc23)c1F [Vemurafenib] + Nc1nc2[nH]cc(CCc3ccc(C(=O)N[C@@H](CCC(=O)O)C(=O)O)cc3)c2c(=O)[nH]1 [Pemetrexed] (partner 0.2 µM)
Procedure, shortened: as §1

OSI-027 + AZD7762 = compound: COc1cccc2cc(-c3nc([C@H]4CC[C@H](C(=O)O)CC4)n4ncnc(N)c34)[nH]c12 [OSI-027] + NC(=O)Nc1cc(-c2cccc(F)c2)sc1C(=O)N[C@H]1CCCNC1 [AZD7762] (partner 0.2 µM)
Procedure, shortened: as §1

Cell Line	relative viability (Vemurafenib + Olaparib; first compound 0.03162 µM)	relative viability (Vemurafenib + Olaparib; first compound 0.3162 µM)	relative viability (Vemurafenib + Olaparib; first compound 1 µM)	relative viability (Alpelisib + OSI-027; first compound 0.04 µM)	relative viability (Alpelisib + OSI-027; first compound 0.1265 µM)	relative viability (Alpelisib + OSI-027; first compound 0.4 µM)	relative viability (Alpelisib + OSI-027; first compound 1.265 µM)	relative viability (Alpelisib + OSI-027; first compound 4 µM)	relative viability (Vemurafenib + Pemetrexed; first compound 0.03162 µM)	relative viability (Vemurafenib + Pemetrexed; first compound 0.3162 µM)	relative viability (Vemurafenib + Pemetrexed; first compound 1 µM)	relative viability (OSI-027 + AZD7762; first compound 0.01 µM)	relative viability (OSI-027 + AZD7762; first compound 0.03162 µM)	relative viability (OSI-027 + AZD7762; first compound 0.1 µM)	relative viability (OSI-027 + AZD7762; first compound 0.3162 µM)	relative viability (OSI-027 + AZD7762; first compound 1 µM)	relative viability (Vemurafenib + Olaparib; first compound 0.1 µM)	relative viability (Vemurafenib + Pemetrexed; first compound 0.1 µM)
NCI-H322M	0.728	0.93	0.726	0.56	0.527	0.515	0.36	0.41	0.587	0.597	0.537	0.621	0.61	0.481	0.427	0.419		
NCI-H358	0.539	0.625	0.521	0.558	0.767	0.572	0.292	0.121	0.208	0.189	0.193	0.544	0.472	0.543	0.56	0.347	0.745	0.179
NCI-H441	0.512	0.556	0.536	0.656	0.64	0.643	0.296	0.305	0.23	0.249	0.27	1.35	1.07	1.24	0.934	0.499	0.597	0.295
NCI-H460	0.44		0.39	0.545	0.623	0.534	0.242	0.137	0.0604	0.065	0.0749	0.731	0.668	0.473	0.548	0.336	0.408	0.058
NCI-H522	0.667	0.669	0.725	0.722	0.622	0.605	0.629	0.5	0.855	0.867	1.2	0.807	0.89	0.68	0.672	0.612	0.543	0.98
NCI-H596	0.742	0.63	0.719	0.629	0.571	0.589	0.457	0.357	0.501	0.405	0.583	1.14	1.08	1.08	1.06	0.943	0.657	0.494
NCI-H647	0.605	0.513	0.634	0.614	0.576	0.626	0.392	0.471	0.164	0.169	0.198	0.402	0.558	0.362	0.314	0.348	0.469	0.174
NCI-H650	0.385	0.305	0.378	0.552	0.435	0.488	0.357	0.325	0.909	0.551	0.702	0.925	1.06	0.955	0.902	0.375	0.368	0.913
NCI-H838	0.746	0.697	0.821	0.386	0.366	0.317	0.244	0.211	0.252	0.338	0.272	0.923	0.838	0.855	0.806	0.801	0.764	0.235
NCI-H1355	0.722	0.828	0.74	0.406	0.325	0.311	0.285	0.235	1.03	1.02	1.04	0.703	0.88	0.753	0.628	0.38	0.671	0.961
NCI-H1395	0.405	0.429	0.482	0.593	0.558	0.717	0.588	0.634	0.679	0.757	0.814	0.316	0.398	0.396	0.352	0.386	0.506	0.744
NCI-H1437	0.629	0.615	0.637	0.796	0.842	0.754	0.527	0.319	0.327	0.312	0.32	1.11	1.02	1.14	1	0.566	0.589	0.294
NCI-H1648		0.927	0.761		0.229	0.244	0.282	0.228		1.01	0.748	0.813	0.572		0.705	0.667	0.434	0.671
NCI-H1651	0.167	0.193	0.169	0.638	0.688	0.646	0.569	0.473	0.555	0.508	0.579	0.471	0.415	0.425	0.465	0.417	0.203	0.626
NCI-H1666	0.715	0.769	0.782	0.837	0.826	0.807	0.609	0.536	0.805	0.913	0.843	0.837	0.707	0.763	0.766	0.585	0.77	0.847
NCI-H1734	0.55	0.611	0.615	0.513		0.455	0.278	0.201	0.396	0.385	0.399	0.619	0.532	0.537	0.408	0.251	0.62	0.382
NCI-H1755	0.806	0.907	0.8	0.684	0.575	0.719	0.55	0.509	0.512	0.422	0.398	0.442	0.432	0.574	0.507	0.396	0.898	0.453
NCI-H1792	0.404		0.441	0.653	0.866	0.677	0.44	0.292	0.59		0.747	0.673	0.704	0.682	0.668	0.192	0.45	0.787

Cell Line	relative viability (Vemurafenib + Olaparib; first compound 0.03162 µM)	relative viability (Vemurafenib + Olaparib; first compound 0.3162 µM)	relative viability (Vemurafenib + Olaparib; first compound 1 µM)	relative viability (Alpelisib + OSI-027; first compound 0.04 µM)	relative viability (Alpelisib + OSI-027; first compound 0.1265 µM)	relative viability (Alpelisib + OSI-027; first compound 0.4 µM)	relative viability (Alpelisib + OSI-027; first compound 1.265 µM)	relative viability (Alpelisib + OSI-027; first compound 4 µM)	relative viability (Vemurafenib + Pemetrexed; first compound 0.03162 µM)	relative viability (Vemurafenib + Pemetrexed; first compound 0.3162 µM)	relative viability (Vemurafenib + Pemetrexed; first compound 1 µM)	relative viability (OSI-027 + AZD7762; first compound 0.01 µM)	relative viability (OSI-027 + AZD7762; first compound 0.03162 µM)	relative viability (OSI-027 + AZD7762; first compound 0.1 µM)	relative viability (OSI-027 + AZD7762; first compound 0.3162 µM)	relative viability (OSI-027 + AZD7762; first compound 1 µM)	relative viability (Vemurafenib + Olaparib; first compound 0.1 µM)	relative viability (Vemurafenib + Pemetrexed; first compound 0.1 µM)
NCI-H1793	0.778	0.879	1.06	0.284	0.24	0.228	0.195	0.161	0.797	0.749	1.12	0.409	0.435	0.399	0.36	0.239	0.497	0.602
NCI-H1915	0.263	0.242	0.244	0.628	0.597	0.61	0.558	0.401	0.493	0.434	0.454	0.728	0.792	0.72	0.592	0.653	0.25	0.494
NCI-H1944	0.426	0.384	0.359	0.365	0.401	0.332	0.281	0.223	0.596	0.564	0.569	0.611	0.43	0.648	0.56	0.371		
NCI-H1975	0.728	0.727	0.793	0.675	0.714	0.656	0.326	0.228	0.285	0.262	0.299	0.708	0.697	0.545	0.609	0.591	0.755	0.284
NCI-H1993	0.976	1.26	1.12	0.596	0.492	0.524	0.571	0.521	0.67	0.642	0.628	0.777	0.728	0.606	0.542	0.416		
NCI-H2085	0.737	0.632	0.858	0.826	0.658	0.709	0.585	0.574	0.764	0.585	1.04	0.978	0.925	0.953	0.97	0.61	0.791	0.6
NCI-H2087	0.506	0.504	0.47	0.503	0.484	0.482	0.342	0.336	0.646	0.544	0.678	1.32	1.1	1.4	1.1	0.929	0.588	0.63
NCI-H2126	0.835	0.92	0.922	0.796	0.67	0.667	0.576	0.38	0.627	0.684	0.777	0.975	0.954	0.998	0.868	0.819	0.956	0.662
NCI-H2170	0.54	0.624	0.553	0.695	0.612	0.663	0.589	0.39	0.272	0.265	0.289	0.995	0.824	0.768	0.689	0.515		
NCI-H2342	0.401	0.608	0.354	0.626	0.594	0.553	0.559	0.421	0.75	0.684	0.784	0.444	0.426	0.553	0.414	0.346	0.429	0.834
NCI-H2347	0.495	0.547	0.588	0.484	0.398	0.356	0.3	0.233	0.413	0.357	0.412	0.683	0.733	0.756	0.595	0.299	0.493	0.441
NCI-H2405	0.857		0.937	0.588	0.534	0.639	0.417	0.384	1.02		1.17	0.701	0.836	0.699	0.598	0.376	0.893	0.977
NCI-H3122	0.63	0.606	0.597	0.928	0.791	0.648	0.37	0.176	0.206	0.214	0.203	1.06	1.09	0.995	0.946	0.486	0.647	0.188
PC-3 [JPC-3]		1.05	1.25	0.831	0.642	0.68	0.593	0.488		0.92	1.25	0.778	0.703	0.521	0.42	0.505		
PC-14	0.292	0.304	0.292	0.865	0.83	0.985	0.574	0.467	0.147	0.126	0.134	0.369	0.314	0.302	0.35	0.22		
RERF-LC-KJ	0.842	0.923	1.06	0.482	0.547	0.507	0.393	0.347	0.501	0.441	0.48	1.05	0.742	0.871	0.748	0.452	0.944	0.486
SW 900	0.812	0.939	0.994	0.527	0.524	0.742	0.568	0.45	0.494	0.457	0.478	0.669	0.575	0.499	0.508	0.402	0.607	0.466
